Values quoted from earlier work as cited in patent US10485825B2, “Prevention of pregnancy complications by noble gas administration” (NOBLIS THERAPEUTICS, INC., priority 2016, dated 2019).

System: Tregs
Details: CCL20 stimulation; blocked by neutralizing anti-CCL20 antibody

Substance: CCL20: CCL20 protein used to stimulate Treg migration in a cited study
- increase in migration of CCL20-stimulated Tregs: 3.21 fold
